{"source": "patent US10537555B2", "about": "“Complex of angiotensin receptor antagonist and neutral endopeptidase inhibitor” (CHENGDU EASTON BIOPHARMACEUTICALS CO., LTD., priority 2015, dated 2020)", "format_in_all_cases": "physicochemical", "key": {"[1]": {"test": "Chemical stability test (HPLC purity under strong light, high temperature, high humidity)", "set-up": "Purity, Valsartan: unit not given here", "text": "On Day 5 and Day 10, respectively, test samples were taken to test their purity."}, "[2]": {"test": "Hygroscopy test (25±1° C., RH 80%±2%, 24 hours)", "conditions": "for Appearance at Hour Twenty-Four / Weight Increase: 24 hours", "text": "The results are in Table XII."}, "[3]": {"test": "LCZ696 under high humidity conditions for ten days", "text": "LCZ696 is highly hygroscopic. […] It is well known that hygroscopicity causes difficulties in granulations, disintegration, dissolution of the solid form during the formulation process, affecting the stability and efficacy of the drug product. Hygroscopic compounds also require more expensive and complex excipients, manufacturing processes, and storage facilities."}}, "data": [{"smiles": "CCCCC(=O)N(Cc1ccc(-c2ccccc2-c2nn[n-]n2)cc1)C(C(=O)[O-])C(C)C.CCCCC(=O)N(Cc1ccc(-c2ccccc2-c2nn[n-]n2)cc1)C(C(=O)[O-])C(C)C.CCOC(=O)C(C)CC(Cc1ccc(-c2ccccc2)cc1)NC(=O)CCC(=O)[O-].CCOC(=O)C(C)CC(Cc1ccc(-c2ccccc2)cc1)NC(=O)CCC(=O)[O-].O.O.O.O.O.[Na+].[Na+].[Na+].[Na+].[Na+].[Na+]", "note": "(stereo not shown) [Comparative Example]", "values": [{"measurement": "Change of HPLC purity in stability test", "setting": "[1]; 10 days at 60° C., 25° C. RH90%±5%, or 4500 lux±500 lux", "value": "only slight decreases in purities"}, {"measurement": "Purity, Valsartan", "setting": "[1]; Humidity 25° C. RH90%, 5 days", "value": 37.05}, {"measurement": "Purity, Valsartan", "setting": "[1]; Humidity 25° C. RH90%, 10 days", "value": 37.01}, {"measurement": "Purity, Valsartan", "setting": "[1]; Light 4500Lux, 5 days", "value": 37.04}, {"measurement": "Purity, Valsartan", "setting": "[1]; Light 4500Lux, 10 days", "value": 36.99}, {"measurement": "Purity, Valsartan", "setting": "[1]; Temperature 60° C., 5 days", "value": 37.03}, {"measurement": "Purity, Valsartan", "setting": "[1]; Temperature 60° C., 10 days", "value": 36.98}, {"measurement": "Appearance at Hour Twenty-Four", "setting": "[2]", "value": "Almost a liquid"}, {"measurement": "Weight Increase", "setting": "[2]", "value": 22.34, "unit": "%"}, {"measurement": "Appearance at Hour Twenty-Four", "setting": "[2]; listed as comparative example", "value": "almost became a liquid"}, {"measurement": "Weight Increase", "setting": "[2]; listed as comparative example", "value": "more than 15%"}, {"measurement": "Appearance at Hour Zero", "setting": "[2]; hour zero", "value": "Off white powder"}, {"measurement": "Hygroscopicity, physical form after exposure", "setting": "[3]", "value": "absorbs water and turns into a liquid form"}]}]}
